According to patent publication US10781224B2, “Bis(oxymethyl)phosphinic acid and biogenic metal salts thereof as regulators of plant growth and development” (priority 2016, dated 2020):

Assays:
[1] = test system: corn (Krasnodar 385 MV variety); assay: Corn seed treatment with BHMPA salts: germinating power; assay type: in vivo
Outline: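 Seeds (50 per Petri dish on two layers of filter paper) soaked 1 h in BHMPA or its Ca, Mg, Na, Co, Mn, Cu or Zn salts at 1·10^−6-1·10^−12%, with water controls. Germination energy read on day 4, germination on day 8 (wheat) or day 7 (rice, corn), as % means of four replicates. Germinating power taken as root and sprout length plus wet and dry mass per 100 seedlings.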

[2] = test system: winter wheat (Vershin variety); assay: Winter wheat seed treatment with BHMPA salts: germination energy and germination rate; assay type: in vivo
Outline: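 Corn, winter wheat and rice seeds (50 per dish, on filter paper) were soaked for 1 h in BHMPA or its metal salts at 1·10^−6-1·10^−12%, with water as control. Germination energy was read on day 4 and germination rate on day 8 for wheat and day 7 for rice and corn, following GOST 12038-84, as the mean of four replicates.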

[3] = corn seeds, solution concentration 1 · 10^−6%, zinc salt of BHMPA
[4] = corn seeds, solution concentration 1 · 10^−7%, zinc salt of BHMPA
[5] = corn seeds, solution concentration 1 · 10^−8%, zinc salt of BHMPA
[6] = corn seeds, solution concentration 1 · 10^−9%, zinc salt of BHMPA
[7] = corn seeds, solution concentration 1 · 10^−10%, zinc salt of BHMPA
[8] = corn seeds, solution concentration 1 · 10^−11%, zinc salt of BHMPA
[9] = corn seeds, solution concentration 1 · 10^−12%, zinc salt of BHMPA
[10] = winter wheat Vershin, 1·10^−6% solution
[11] = winter wheat Vershin, 1·10^−7% solution
[12] = winter wheat Vershin, 1·10^−8% solution
[13] = winter wheat Vershin, 1·10^−9% solution
[14] = winter wheat Vershin, 1·10^−10% solution
[15] = winter wheat Vershin, 1·10^−11% solution
[16] = winter wheat Vershin, 1·10^−12% solution
[17] = winter wheat, comparative study vs Melaphen, 1·10^−9% solution

With `O=P([O-])(CO)CO.O=P([O-])(CO)CO.[Zn+2]` [Zn-salt, Zinc BHMPA Salt] the “optimum concentration for treating corn seeds before sowing” value ([1]; corn) was 1·10^−8%, the “Length, root” value [1, 3] was 5.3 cm and the “Length, root, + % to control” value [1, 3] was 13%. For the same compound, the “Length, sprout” value [1, 3] was 3.4 cm, the “Length, sprout, + % to control” value [1, 3] was 3% and the “Mass, dry, root” value [1, 3] was 1.17 g/100 plantlings. For the same compound, the “Mass, dry, root, + % to control” value [1, 3] was 12.5%, the “Mass, dry, sprout” value [1, 3] was 0.97 g/100 plantlings and the “Mass, dry, sprout, + % to control” value [1, 3] was 13%. The “Mass, wet, root” value [1, 3] was 6.98 g/100 plantlings, the “Mass, wet, root, + % to control” value [1, 3] was 8.5% and the “Mass, wet, sprout” value [1, 3] was 5.99 g/100 plantlings. For the same compound, the “Mass, wet, sprout, + % to control” value [1, 3] was 5%, the “Length, root” value [1, 4] was 5.6 cm and the “Length, root, + % to control” value [1, 4] was 19%. For the same compound, the “Length, sprout” value [1, 4] was 3.5 cm, the “Length, sprout, + % to control” value [1, 4] was 6% and the “Mass, dry, root” value [1, 4] was 1.30 g/100 plantlings. The “Mass, dry, root, + % to control” value [1, 4] was 25%, the “Mass, dry, sprout” value [1, 4] was 1.10 g/100 plantlings and the “Mass, dry, sprout, + % to control” value [1, 4] was 28%. For the same compound, the “Mass, wet, root” value [1, 4] was 7.46 g/100 plantlings, the “Mass, wet, root, + % to control” value [1, 4] was 16% and the “Mass, wet, sprout” value [1, 4] was 7.03 g/100 plantlings. For the same compound, the “Mass, wet, sprout, + % to control” value [1, 4] was 24%, the “Length, root” value [1, 5] was 5.9 cm and the “Length, root, + % to control” value [1, 5] was 25.5%. For the same compound, the “Length, sprout” value [1, 5] was 4.0 cm, the “Mass, dry, root” value [1, 5] was 1.36 g/100 plantlings and the “Mass, dry, sprout” value [1, 5] was 1.13 g/100 plantlings. For the same compound, the “Mass, wet, root” value [1, 5] was 8.18 g/100 plantlings, the “Mass, wet, sprout” value [1, 5] was 7.82 g/100 plantlings and the “Length, root” value [1, 6] was 5.8 cm. For the same compound, the “Length, root, + % to control” value [1, 6] was 23%, the “Length, sprout” value [1, 6] was 3.8 cm and the “Length, sprout, + % to control” value [1, 6] was 15%. The “Mass, dry, root” value [1, 6] was 1.19 g/100 plantlings, the “Mass, dry, root, + % to control” value [1, 6] was 14% and the “Mass, dry, sprout” value [1, 6] was 1.06 g/100 plantlings. The “Mass, dry, sprout, + % to control” value [1, 6] was 23%, the “Mass, wet, root” value [1, 6] was 7.39 g/100 plantlings and the “Mass, wet, root, + % to control” value [1, 6] was 15%. For the same compound, the “Mass, wet, sprout” value [1, 6] was 6.99 g/100 plantlings, the “Mass, wet, sprout, + % to control” value [1, 6] was 23% and the “Length, root” value [1, 7] was 5.5 cm. For the same compound, the “Length, root, + % to control” value [1, 7] was 15%, the “Length, sprout” value [1, 7] was 3.7 cm and the “Length, sprout, + % to control” value [1, 7] was 12%. The “Mass, dry, root” value [1, 7] was 1.13 g/100 plantlings, the “Mass, dry, root, + % to control” value [1, 7] was 9% and the “Mass, dry, sprout” value [1, 7] was 1.00 g/100 plantlings. The “Mass, dry, sprout, + % to control” value [1, 7] was 16%, the “Mass, wet, root” value [1, 7] was 6.96 g/100 plantlings and the “Mass, wet, root, + % to control” value [1, 7] was 8%. For the same compound, the “Mass, wet, sprout” value [1, 7] was 6.29 g/100 plantlings, the “Mass, wet, sprout, + % to control” value [1, 7] was 11% and the “Length, root” value [1, 8] was 5.2 cm. For the same compound, the “Length, root, + % to control” value [1, 8] was 11%, the “Length, sprout” value [1, 8] was 3.6 cm and the “Length, sprout, + % to control” value [1, 8] was 9%. For the same compound, the “Mass, dry, root” value [1, 8] was 1.10 g/100 plantlings, the “Mass, dry, root, + % to control” value [1, 8] was 6% and the “Mass, dry, sprout” value [1, 8] was 0.97 g/100 plantlings. The “Mass, dry, sprout, + % to control” value [1, 8] was 13%, the “Mass, wet, root” value [1, 8] was 6.81 g/100 plantlings and the “Mass, wet, root, + % to control” value [1, 8] was 6%. The “Mass, wet, sprout” value [1, 8] was 5.93 g/100 plantlings, the “Mass, wet, sprout, + % to control” value [1, 8] was 4% and the “Length, root” value [1, 9] was 4.8 cm. The “Length, root, + % to control” value [1, 9] was 2%, the “Length, sprout” value [1, 9] was 3.5 cm and the “Length, sprout, + % to control” value [1, 9] was 6%. For the same compound, the “Mass, dry, root” value [1, 9] was 0.93 g/100 plantlings, the “Mass, dry, root, + % to control” value [1, 9] was −10.5% and the “Mass, dry, sprout” value [1, 9] was 0.89 g/100 plantlings. The “Mass, dry, sprout, + % to control” value [1, 9] was 3%, the “Mass, wet, root” value [1, 9] was 6.47 g/100 plantlings and the “Mass, wet, root, + % to control” value [1, 9] was 1%. For the same compound, the “Mass, wet, sprout” value [1, 9] was 5.71 g/100 plantlings, the “Mass, wet, sprout, + % to control” value [1, 9] was 0.5% and the “Length, root, + % to control” value ([1]; corn, 1·10^−8% solution) was 25.5%. The “Length, sprout, + % to control” value ([1]; corn, 1·10^−8% solution) was 21%, the “Mass, dry, root, + % to control” value ([1]; corn, 1·10^−8% solution) was 31% and the “Mass, dry, sprout, + % to control” value ([1]; corn, 1·10^−8% solution) was 31%. The “Mass, wet, root, + % to control” value ([1]; corn, 1·10^−8% solution) was 27%, the “Mass, wet, sprout, + % to control” value ([1]; corn, 1·10^−8% solution) was 38% and the Germination energy [2, 10] was 91.9%. It also gave a Germination rate [2, 10] of 95.3%, a Germination energy [2, 11] of 92.7% and a Germination rate [2, 11] of 96.0%. For the same compound, the Germination energy [2, 12] was 94.1%, the Germination rate [2, 12] was 97.3% and the Germination energy [2, 13] was 96.1%. For the same compound, the Germination rate [2, 13] was 98.3%, the Germination energy [2, 14] was 95.4% and the Germination rate [2, 14] was 97.3%. It also gave a Germination energy [2, 15] of 93.2%, a Germination rate [2, 15] of 96.0% and a Germination energy [2, 16] of 92.3%. It also gave a Germination rate [2, 16] of 96.0%, a Germination energy [2, 17] of 94.0% and a Germination rate [2, 17] of 97.3%.
